According to ChEMBL document CHEMBL5346892, “Design and synthesis of benzochromene derivatives as AcrB inhibitors for the reversal of bacterial multidrug resistance” (Eur J Med Chem, 2023):
Active and inactive are the calls of the source. No cut-off for these calls is given here. Peptide text beside a SMILES is read from it.

Tests used:
[1] = Toxicity in Caenorhabditis elegans assessed as survival rate at 128 microg/ml measured after 72 hrs by light microscopic analysis; details: at 128 µg/mL
[2] = tested on: Cell membrane; experiment: Induction of inner membrane permeabilization in Escherichia coli BW25113 assessed as increase in fluorescence intensity at 64 microg/ml incubated for 10 mins by DiOC2 dye based fluorimeter analysis; format: subcellular; details: dose 64.0 µg/ml
[3] = tested on: Escherichia coli; experiment: Synergistic antibacterial activity against wild type Escherichia coli BW25113 assessed as minocycline MIC at 16 microg/ml incubated for 18 hrs by broth dilution assay; format: functional; details: dose 16 µg/ml
[4] = tested on: Escherichia coli; experiment: Synergistic antibacterial activity against wild type Escherichia coli BW25113 assessed as levofloxacin MIC at 16 microg/ml incubated for 18 hrs in presence of colistin by broth dilution assay; format: functional; details: dose 16 µg/ml
[5] = tested on: Escherichia coli; experiment: Synergistic antibacterial activity against wild type Escherichia coli BW25113 assessed as minocycline MIC at 128 microg/ml incubated for 18 hrs by broth dilution assay; format: functional; details: dose 128 µg/ml
[6] = tested on: Escherichia coli; experiment: Synergistic antibacterial activity against wild type Escherichia coli BW25113 assessed as minocycline MIC at 8 microg/ml incubated for 18 hrs in presence of colistin by broth dilution assay; format: functional; details: dose 8 µg/ml
[7] = tested on: Escherichia coli; experiment: Synergistic antibacterial activity against wild type Escherichia coli BW25113 assessed as minocycline MIC at 64 microg/ml incubated for 18 hrs in presence of colistin by broth dilution assay; format: functional; details: dose 64 µg/ml
[8] = target: T1, Multidrug efflux pump subunit AcrB (Escherichia coli (strain K12)) (UniProt P31224); experiment: Inhibition of Escherichia coli BW25113 AcrB assessed as inhibition of nile red efflux at 50 uM incubated for 15 mins
T1 sequence (whole entry): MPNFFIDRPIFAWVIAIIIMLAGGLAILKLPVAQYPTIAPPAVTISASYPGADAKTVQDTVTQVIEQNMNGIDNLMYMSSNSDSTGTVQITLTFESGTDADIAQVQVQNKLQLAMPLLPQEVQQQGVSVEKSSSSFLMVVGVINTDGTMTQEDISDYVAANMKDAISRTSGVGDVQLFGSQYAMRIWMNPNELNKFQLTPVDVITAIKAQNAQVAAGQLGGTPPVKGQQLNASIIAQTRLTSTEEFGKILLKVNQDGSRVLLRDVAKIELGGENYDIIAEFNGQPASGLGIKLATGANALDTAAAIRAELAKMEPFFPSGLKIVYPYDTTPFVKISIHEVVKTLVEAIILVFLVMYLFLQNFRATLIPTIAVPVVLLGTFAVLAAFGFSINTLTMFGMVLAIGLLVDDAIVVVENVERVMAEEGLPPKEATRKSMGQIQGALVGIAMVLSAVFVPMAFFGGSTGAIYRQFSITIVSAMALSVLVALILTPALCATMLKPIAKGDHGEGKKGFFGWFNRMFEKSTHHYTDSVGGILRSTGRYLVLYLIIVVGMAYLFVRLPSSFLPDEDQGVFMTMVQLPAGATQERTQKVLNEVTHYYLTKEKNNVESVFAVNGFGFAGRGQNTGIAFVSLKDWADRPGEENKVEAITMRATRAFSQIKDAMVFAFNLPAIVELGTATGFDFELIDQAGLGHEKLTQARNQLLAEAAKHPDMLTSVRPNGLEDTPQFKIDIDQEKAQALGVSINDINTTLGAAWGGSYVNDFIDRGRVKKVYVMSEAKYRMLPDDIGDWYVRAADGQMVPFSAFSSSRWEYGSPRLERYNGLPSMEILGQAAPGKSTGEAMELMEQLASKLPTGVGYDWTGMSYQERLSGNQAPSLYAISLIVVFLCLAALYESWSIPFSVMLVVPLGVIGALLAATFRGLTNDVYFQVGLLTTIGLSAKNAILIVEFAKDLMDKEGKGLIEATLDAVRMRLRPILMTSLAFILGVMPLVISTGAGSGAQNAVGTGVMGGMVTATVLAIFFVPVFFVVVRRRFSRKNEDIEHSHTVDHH

[9] = tested on: Escherichia coli; experiment: Synergistic antibacterial activity against wild type Escherichia coli BW25113 assessed as levofloxacin MIC at 128 microg/ml incubated for 18 hrs by broth dilution assay; format: functional; details: dose 128 µg/ml
[10] = tested on: Escherichia coli; experiment: Synergistic antibacterial activity against wild type Escherichia coli BW25113 assessed as erythromycin MIC at 32 microg/ml incubated for 18 hrs in presence of colistin by broth dilution assay; format: functional; details: dose 32 µg/ml
[11] = tested on: Escherichia coli; experiment: Synergistic antibacterial activity against wild type Escherichia coli BW25113 assessed as minocycline MIC at 4 microg/ml incubated for 18 hrs in presence of colistin by broth dilution assay; format: functional; details: dose 4 µg/ml
[12] = tested on: Escherichia coli; experiment: Synergistic antibacterial activity against wild type Escherichia coli BW25113 assessed as minocycline MIC at 32 microg/ml incubated for 18 hrs by broth dilution assay; format: functional; details: dose 32 µg/ml
[13] = tested on: Escherichia coli; experiment: Synergistic antibacterial activity against wild type Escherichia coli BW25113 assessed as erythromycin MIC at 64 microg/ml incubated for 18 hrs in presence of colistin by broth dilution assay; format: functional; details: dose 64 µg/ml
[14] = tested on: Escherichia coli; experiment: Synergistic antibacterial activity against wild type Escherichia coli BW25113 assessed as minocycline MIC at 16 microg/ml incubated for 18 hrs in presence of colistin by broth dilution assay; format: functional; details: dose 16 µg/ml
[15] = tested on: Escherichia coli; experiment: Synergistic antibacterial activity against wild type Escherichia coli BW25113 assessed as erythromycin MIC at 8 microg/ml incubated for 18 hrs in presence of colistin by broth dilution assay; format: functional; details: dose 8 µg/ml
[16] = tested on: Escherichia coli; experiment: Synergistic antibacterial activity against wild type Escherichia coli BW25113 assessed as levofloxacin MIC at 8 microg/ml incubated for 18 hrs by broth dilution assay; format: functional; details: dose 8 µg/ml
[17] = tested on: Escherichia coli; experiment: Synergistic antibacterial activity against wild type Escherichia coli BW25113 assessed as erythromycin MIC at 16 microg/ml incubated for 18 hrs by broth dilution assay; format: functional; details: dose 16 µg/ml
[18] = tested on: Escherichia coli; experiment: Synergistic antibacterial activity against wild type Escherichia coli BW25113 assessed as erythromycin MIC at 16 microg/ml incubated for 18 hrs in presence of colistin by broth dilution assay; format: functional; details: dose 16 µg/ml
[19] = tested on: Escherichia coli; experiment: Synergistic antibacterial activity against wild type Escherichia coli BW25113 assessed as levofloxacin MIC at 8 microg/ml incubated for 18 hrs in presence of colistin by broth dilution assay; format: functional; details: dose 8 µg/ml
[20] = Hemolytic activity in mouse RBC assessed as hemolysis at 4 to 256 microg/ml incubated for 1 hr by microplate reader analysis; format: toxicity, cell-based, Erythrocyte; details: mouse red blood cells (erythrocytes), at 4 to 256 µg/mL, dose 4-256 µg/ml, read-out: Activity
[21] = tested on: Escherichia coli; experiment: Synergistic antibacterial activity against wild type Escherichia coli BW25113 assessed as levofloxacin MIC at 64 microg/ml incubated for 18 hrs in presence of colistin by broth dilution assay; format: functional; details: dose 64 µg/ml
[22] = tested on: Escherichia coli; experiment: Synergistic antibacterial activity against wild type Escherichia coli BW25113 assessed as erythromycin MIC at 128 microg/ml incubated for 18 hrs by broth dilution assay; format: functional; details: dose 128 µg/ml
[23] = tested on: Escherichia coli; experiment: Synergistic antibacterial activity against wild type Escherichia coli BW25113 assessed as minocycline MIC at 64 microg/ml incubated for 18 hrs by broth dilution assay; format: functional; details: dose 64 µg/ml
[24] = tested on: Escherichia coli; experiment: Synergistic antibacterial activity against wild type Escherichia coli BW25113 assessed as erythromycin MIC at 8 microg/ml incubated for 18 hrs by broth dilution assay; format: functional; details: dose 8 µg/ml
[25] = tested on: Escherichia coli; experiment: Synergistic antibacterial activity against wild type Escherichia coli BW25113 assessed as levofloxacin MIC at 32 microg/ml incubated for 18 hrs in presence of colistin by broth dilution assay; format: functional; details: dose 32 µg/ml
[26] = tested on: Escherichia coli; experiment: Synergistic antibacterial activity against wild type Escherichia coli BW25113 assessed as erythromycin MIC at 64 microg/ml incubated for 18 hrs by broth dilution assay; format: functional; details: dose 64 µg/ml
[27] = tested on: Escherichia coli; experiment: Synergistic antibacterial activity against wild type Escherichia coli BW25113 assessed as erythromycin MIC at 32 microg/ml incubated for 18 hrs by broth dilution assay; format: functional; details: dose 32 µg/ml
[28] = tested on: Escherichia coli; experiment: Synergistic antibacterial activity against wild type Escherichia coli BW25113 assessed as fold decrease in levofloxacin MIC at 8 microg/ml incubated for 18 hrs by checkboard based microplate reader analysis; format: functional; details: dose 8 µg/ml
[29] = tested on: Escherichia coli; experiment: Synergistic antibacterial activity against wild type Escherichia coli BW25113 assessed as minocycline MIC at 32 microg/ml incubated for 18 hrs in presence of colistin by broth dilution assay; format: functional; details: dose 32 µg/ml
[30] = tested on: Escherichia coli; experiment: Synergistic antibacterial activity against wild type Escherichia coli BW25113 assessed as levofloxacin MIC at 64 microg/ml incubated for 18 hrs by broth dilution assay; format: functional; details: dose 64 µg/ml
[31] = tested on: Escherichia coli; experiment: Synergistic antibacterial activity against wild type Escherichia coli BW25113 assessed as levofloxacin MIC at 16 microg/ml incubated for 18 hrs by broth dilution assay; format: functional; details: dose 16 µg/ml
[32] = tested on: Escherichia coli; experiment: Synergistic antibacterial activity against wild type Escherichia coli BW25113 assessed as levofloxacin MIC at 32 microg/ml incubated for 18 hrs by broth dilution assay; format: functional; details: dose 32 µg/ml
[33] = tested on: Escherichia coli; experiment: Synergistic antibacterial activity against wild type Escherichia coli BW25113 assessed as minocycline MIC at 128 microg/ml incubated for 18 hrs in presence of colistin by broth dilution assay; format: functional; details: dose 128 µg/ml
[34] = tested on: Escherichia coli; experiment: Synergistic antibacterial activity against wild type Escherichia coli BW25113 assessed as minocycline MIC at 8 microg/ml incubated for 18 hrs by broth dilution assay; format: functional; details: dose 8 µg/ml
[35] = tested on: Escherichia coli; experiment: Synergistic antibacterial activity against wild type Escherichia coli BW25113 assessed as fold decrease in erythromycin MIC at 128 microg/ml incubated for 18 hrs by checkboard based microplate reader analysis; format: functional; details: dose 128 µg/ml
[36] = tested on: Escherichia coli; experiment: Synergistic antibacterial activity against wild type Escherichia coli BW25113 assessed as erythromycin MIC at 128 microg/ml incubated for 18 hrs in presence of colistin by broth dilution assay; format: functional; details: dose 128 µg/ml
[37] = tested on: Escherichia coli; experiment: Synergistic antibacterial activity against wild type Escherichia coli BW25113 assessed as levofloxacin MIC at 128 microg/ml incubated for 18 hrs in presence of colistin by broth dilution assay; format: functional; details: dose 128 µg/ml

Row | Compound | survival at 72 h, 128 microg/ml [1] [%] | Activity [2] | MIC [3] [µg/mL] | MIC [4] [µg/mL] | MIC [5] [µg/mL] | MIC [6] [µg/mL] | MIC [7] [µg/mL] | MIC [9] [µg/mL] | MIC [10] [µg/mL] | MIC [12] [µg/mL] | MIC [16] [µg/mL] | MIC [17] [µg/mL] | MIC [22] [µg/mL] | MIC [23] [µg/mL] | MIC [24] [µg/mL] | MIC [26] [µg/mL] | MIC [27] [µg/mL] | MIC [30] [µg/mL] | MIC [31] [µg/mL] | MIC [32] [µg/mL] | also measured
1 | CC1(C)S[C@@H]2[C@H](NC(=O)[C@H](N)c3ccccc3)C(=O)N2[C@H]1C(=O)O [AMPICILLIN] | 99 | – | – | – | – | – | – | – | – | – | – | – | – | – | – | – | – | – | – | – | –
2 | CC1(C)CCc2c(C(=O)N3CCOCC3)cc3c(OCCCSc4ccc(N)cc4)cccc3c2O1 | 90 | inactive | 1 | 0.016 | 1 | 1 | 0.5 | 0.008 | 8 | 1 | 0.008 | 64 | 64 | 1 | 64 | 64 | 64 | 0.008 | 0.008 | 0.008 | inhibition [8]: Active; MIC [11]: 1 µg/mL; MIC [13]: 8 µg/mL; MIC [14]: 1 µg/mL; MIC [15]: 8 µg/mL; MIC [18]: 8 µg/mL; MIC [19]: 0.032 µg/mL; hemolysis at 1 h [20]: < 5%; MIC [21]: 0.008 µg/mL; MIC [25]: 0.016 µg/mL; fold change (FC) [28]: 4; MIC [29]: 1 µg/mL
3 | CC1(C)CCc2c(C(=O)N3CCOCC3)cc3c(OCCOc4ccc([N+](=O)[O-])cc4)cccc3c2O1 | 90 | inactive | 2 | 0.032 | 2 | 1 | 0.5 | 0.032 | 8 | 2 | 0.032 | 64 | 16 | 2 | 64 | 32 | 64 | 0.032 | 0.032 | 0.032 | MIC [33]: 0.5 µg/mL; MIC [13]: 8 µg/mL; MIC [14]: 1 µg/mL; MIC [15]: 8 µg/mL; MIC [18]: 8 µg/mL; MIC [34]: 2 µg/mL; MIC [19]: 0.032 µg/mL; hemolysis at 1 h [20]: < 5%; fold change (FC) [35]: 4; MIC [21]: 0.032 µg/mL; MIC [25]: 0.032 µg/mL; MIC [36]: 4 µg/mL; MIC [29]: 1 µg/mL; MIC [37]: 0.032 µg/mL
4 | N=C(N)NCCC[C@H](NC(=O)[C@@H](N)Cc1ccccc1)C(=O)Nc1ccc2ccccc2c1 [PABETAN] (HELM PEPTIDE1{F.R.[c1ccc2cc(N[*:1])ccc2c1]}$$$$V2.0) | – | – | 0.5 | – | 0.25 | – | – | 0.001 | – | 0.5 | 0.016 | 8 | 2 | 0.5 | 16 | 4 | 4 | 0.008 | 0.008 | 0.008 | MIC [34]: 0.5 µg/mL
